For the experiment, the target named is Sodium-dependent dopamine transporter (Rattus norvegicus, UniProt P23977). Nature of the experiment: Displacement of [3H]WIN-35 428 binding at dopamine transporter (DAT) in rat caudate putamen. In kind it is tissue-based.
Sodium-dependent dopamine transporter, sequence (P23977 whole entry): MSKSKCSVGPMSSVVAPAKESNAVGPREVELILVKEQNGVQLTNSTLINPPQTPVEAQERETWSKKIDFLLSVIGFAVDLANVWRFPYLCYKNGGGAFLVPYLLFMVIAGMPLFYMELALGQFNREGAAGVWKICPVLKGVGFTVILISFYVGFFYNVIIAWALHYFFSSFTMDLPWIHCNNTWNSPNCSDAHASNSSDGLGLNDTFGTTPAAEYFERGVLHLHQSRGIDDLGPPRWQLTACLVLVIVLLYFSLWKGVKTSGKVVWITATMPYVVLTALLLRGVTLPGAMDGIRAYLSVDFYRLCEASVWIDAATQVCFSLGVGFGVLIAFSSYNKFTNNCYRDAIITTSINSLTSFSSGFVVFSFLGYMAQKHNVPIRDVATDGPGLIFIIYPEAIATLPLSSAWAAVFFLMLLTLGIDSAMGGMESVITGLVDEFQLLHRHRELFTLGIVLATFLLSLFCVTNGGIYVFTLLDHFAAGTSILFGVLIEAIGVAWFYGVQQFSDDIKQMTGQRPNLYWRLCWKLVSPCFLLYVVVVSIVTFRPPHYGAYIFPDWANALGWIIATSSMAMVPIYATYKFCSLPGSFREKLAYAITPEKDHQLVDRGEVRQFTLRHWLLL
In the case of `COC(=O)C1C(c2ccc(Cl)cc2)CC2CCC1N2CCCCc1ccc(N=[N+]=[N-])c(I)c1` (stereo unspecified), affinity was put at a Ki of 33 nM.
For `CN1C2CCC1C(C(=O)OCCc1ccc(N=[N+]=[N-])c(I)c1)C(c1ccc(Cl)cc1)C2` (stereo unspecified) the value was 14.5 nM.
As to `COC(=O)C1C(c2ccc(Cl)cc2)CC2CCC1N2CCCCc1ccc(N=C=S)cc1` (stereo unspecified), the inhibitory constant (Ki) stood at 31.5 nM.
For `[N-]=[N+]=Nc1ccc(CCCN2[C@@H]3CC[C@H]2C[C@@H](OC(c2ccc(F)cc2)c2ccc(F)cc2)C3)cc1I` the value was 284 nM; for `Fc1ccc(C(O[C@H]2C[C@H]3CC[C@@H](C2)N3CCCc2ccc(N=C=S)cc2)c2ccc(F)cc2)cc1`, 611 nM; for `Fc1ccc(C(O[C@H]2C[C@H]3CC[C@@H](C2)N3CCCCc2ccc(N=C=S)cc2)c2ccc(F)cc2)cc1`, 420 nM.

These data come from ChEMBL document CHEMBL1134308, “Novel tropane-based irreversible ligands for the dopamine transporter” (J Med Chem, 2001).
